According to PubChem BioAssay (NCI):
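Test compounds were applied to cells in 96-well plates for 48 hours at 5 doses. Here, GI50 denotes the concentration required for 50% inhibition of growth. TGI: concentration producing complete growth inhibition.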

Assays:
Experiment in all cases: NCI tumour cell line growth inhibition, 48 h; in the data active = GI50 below about 0.43 µM; inactive = the rest
[1] = system: HT29 colon
[2] = system: SN12C renal
[3] = system: SK-MEL-5 melanoma
[4] = system: SK-MEL-28 melanoma
[5] = system: NCI-H460 lung
[6] = system: NCI-H522 lung
[7] = system: SNB-19 CNS
[8] = system: HCT-116 colon
[9] = system: SW-620 colon
[10] = system: K-562 leukemia
[11] = system: KM12 colon
[12] = system: PC-3 prostate
[13] = system: ACHN renal
[14] = system: UACC-257 melanoma
[15] = system: BT-549 breast
[16] = system: A549 NSCLC
[17] = system: HL-60(TB) leukemia
[18] = system: SK-MEL-2 melanoma
[19] = system: LOX IMVI melanoma
[20] = system: A498 renal
[21] = system: SNB-75 CNS
[22] = system: UO-31 renal
[23] = system: HS 578T breast
[24] = system: SF-268 CNS
[25] = system: 786-0 renal
[26] = system: HOP-92 NSCLC
[27] = system: DU-145 prostate
[28] = system: OVCAR-8 ovarian
[29] = system: IGROV1 ovarian
[30] = system: UACC-62 melanoma
[31] = system: SF-539 CNS
[32] = system: RXF 393 renal
[33] = system: SF-295 CNS
[34] = system: OVCAR-4 ovarian
[35] = system: MCF7 breast
[36] = system: NCI-H226 lung
[37] = system: EKVX NSCLC
[38] = system: SR leukemia
[39] = system: NCI/ADR-RES ovarian
[40] = system: MDA-MB-435
[41] = system: HCT-15 colon
[42] = system: COLO 205 colon
[43] = system: MDA-MB-231 breast
[44] = system: NCI-H23 lung
[45] = system: M14 melanoma
[46] = system: HOP-62 NSCLC
[47] = system: OVCAR-3 ovarian
[48] = system: CAKI-1 renal
[49] = system: RPMI-8226 leukemia
[50] = system: SK-OV-3 ovarian
[51] = system: MOLT-4 leukemia
[52] = system: OVCAR-5 ovarian
[53] = system: U251 CNS

COc1ncnc(NS(=O)(=O)c2ccc(N=C3C(=O)N(CN4CCN(c5c(F)cc6c(=O)c(C(=O)O)cn(C7CC7)c6c5OC)CC4C)c4ccc(Cl)cc43)cc2)c1OC (stereo unspecified)
14.7 µM: TGI [14]
16.5 µM: TGI [3]
15.6 µM: TGI [19]
inactive: GI50 [1] 18.4 µM | GI50 [2] 16.9 µM | GI50 [3] 8.63 µM | GI50 [4] 26.1 µM | GI50 [5] 11 µM | GI50 [6] > 50 µM | GI50 [7] > 50 µM | GI50 [8] 11.5 µM | GI50 [9] 10.7 µM | GI50 [10] 20.5 µM | GI50 [11] 13 µM | GI50 [12] 9.39 µM | GI50 [13] 7.17 µM | GI50 [14] 6.32 µM | GI50 [15] 20.6 µM | GI50 [16] 21.2 µM | GI50 [17] 14 µM | GI50 [18] 35.2 µM | GI50 [19] 6.89 µM | GI50 [20] 40.8 µM | GI50 [21] > 50 µM | GI50 [22] 32.7 µM | GI50 [23] 23.1 µM | GI50 [24] 10.7 µM | GI50 [25] 21.4 µM | GI50 [26] 10.6 µM | GI50 [27] 21 µM | GI50 [28] 14 µM | GI50 [29] 20 µM | GI50 [30] 16.1 µM | GI50 [31] 16.8 µM | GI50 [32] 10.8 µM | GI50 [33] 10.7 µM | GI50 [34] 37.7 µM | GI50 [35] 12 µM | GI50 [36] 27.1 µM | GI50 [37] 27.7 µM | GI50 [38] 5.3 µM | GI50 [39] 8.76 µM | GI50 [40] 9.34 µM | GI50 [41] 7.48 µM | GI50 [42] 19.6 µM | GI50 [43] 6.3 µM | GI50 [44] 13.5 µM | GI50 [45] 21.1 µM | GI50 [46] 23.4 µM | GI50 [47] 13.1 µM | GI50 [48] 6.44 µM | GI50 [49] 8.33 µM | GI50 [50] 37.7 µM | GI50 [51] > 50 µM | GI50 [52] 19.2 µM | GI50 [53] 9.61 µM
39.6 µM: TGI [32]
19 µM: TGI [40]
20.6 µM: TGI [13]
45.2 µM: TGI [53]
28.1 µM: TGI [49]
47.3 µM: TGI [44]
23 µM: TGI [41]
26.1 µM: TGI [48]
> 50 µM: TGI [1] | TGI [2] | TGI [4] | TGI [5] | TGI [6] | TGI [7] | TGI [8] | TGI [9] | TGI [10] | TGI [11] | TGI [12] | TGI [15] | TGI [16] | TGI [17] | TGI [18] | TGI [20] | TGI [21] | TGI [22] | TGI [23] | TGI [24] | TGI [25] | TGI [26] | TGI [27] | TGI [28] | TGI [29] | TGI [30] | TGI [31] | TGI [33] | TGI [34] | TGI [35] | TGI [36] | TGI [37] | TGI [38] | TGI [42] | TGI [43] | TGI [45] | TGI [46] | TGI [47] | TGI [50] | TGI [51] | TGI [52]
42.1 µM: TGI [39]
